Test results from PubChem BioAssay AID2060513 (Molecular Pharmacology Branch, DTP, NCI, 2025).
pIC50: −log10 of the molar value.

Tested on: 299254-011-R-J1-PDC complex spheroids viability
Assay: Anticancer human tumor 299254-011-R-J1-PDC patient-derived melanoma cell line growth inhibition [GQUAD]
Conditions: for pIC50: curve of first compound; for viability, T/C: stronger effect = lower value
Source text: DNA G-quadruplex Stabilizer Agents in Combinations in Complex Spheroids
A high-throughput screen of multi-cell type tumor spheroids was designed to identify active combinations of DNA G-quadruplex stabilizer agents and targeted small molecules. Complex spheroids include a stromal component modeled by human endothelial cells (HUVEC) and fibroblasts modeled by human mesenchymal stem cells (MSCs). The concentration ranges selected for each drug and investigational agent were based upon clinically achievable concentrations if the clinical Cmax of the agent was known.
Compounds. The drugs and investigational agents: pidnarulex (CX-5461; NSC782164), APTO-253 (NSC789042), BRACO-19 (NSC847499), peposertib (NSC802822), ceralasertib (NSC780249), elimusertib (NSC800525), camonsertib (NSC841442), AZD-1390 (NSC803789), olaparib (NSC753686), talazoparib (NSC767125), ART-558 (NSC835418), sotorasib (NSC818433), MRTX-1133 (NSC836407), SN-38 (NSC673596), topotecan (NSC609699), etoposide (NSC141540), doxorubicin (NSC123127), gemcitabine (NSC613327), 5-fluorouracil (NSC19893), paclitaxel (NSC125973), vemurafenib (NSC761431), panobinostat (NSC761190), R-306465 (JNJ-16241199; NSC773264), adavosertib (NSC754352), TP-3654 (NSC805149), carboplatin (NSC241240), KSQ-4279 (NSC840948), and staurosporine (NSC755774) were obtained from the National Cancer Institute (NCI) Developmental Therapeutics Program Chemical Repository (34). The FDA-approved anticancer drug set is available from the NCI Developmental Therapeutics Program. […] The stock solutions were prepared in dimethyl sulfoxide (DMSO, Sigma-Aldrich, St. Louis, MO, cat. D2650) at 800-fold the tested concentration and stored at -70 degrees C prior to their use. All drugs and investigational agents were tested over a range starting from a high concentration at or near the clinical Cmax and decreasing in half-log increments. If the clinical Cmax for an agent had not been determined, the highest concentration tested was 10 microM.
2.3 Cell Culture. All cells were maintained in an incubator at 37 degrees C and 5% CO2 with 95% humidity. The PDC lines were cultured according to standard operating procedures established by the NCI PDMR. All PDCs were thawed and cultured in Matrigel-coated flasks prepared with a working solution of 1X Ham's F-12 nutrient mix, without supplementation (Invitrogen, cat. 11765054), 100 U/mL penicillin-streptomycin (Invitrogen, cat. 15140122), and 2.5% Matrigel (Corning Inc., cat. 354248) for the first three passages. The 857933-349-R-J2-PDC line was cultured in 6C/Colon 1B media, which includes advanced DMEM/F-12 (Thermo Fisher Scientific, cat. 12634028), 10 mM HEPES (Thermo Fisher Scientific, cat. 15630080), 1X GlutaMAX supplement (Thermo Fisher Scientific, cat. 35050061), 0.1 mg/mL primocin (InvivoGen, cat. ant-pm-2), 10% defined fetal bovine serum, heat inactivated (HyClone Laboratories Inc., cat. SH30070.03HI), 50% L-WRN conditioned media (ATCC, cat. CRL-3276), 1.25 mM N-Acetyl-L-cysteine (Sigma-Aldrich, cat. A9165), 10 mM nicotinamide (Sigma-Aldrich, cat. N0636), 1X B-27 supplement (Thermo Fisher Scientific, cat. 17504044), 1X N-2 supplement (Thermo Fisher Scientific, cat. 17502048), 10 microM Y-27632 dihydrochloride (Tocris Bioscience, cat. 1254), and 50 ng/mL human EGF recombinant protein (Thermo Fisher Scientific, cat. PHG0311). The 485176-168-R4-J1-PDC line was cultured in Panc media, which includes all 6C/Colon 1B media components plus 100 ng/mL human FGF-10 (Thermo Fisher Scientific, cat. 100-26), 500 nM SB-431542 (Selleckchem, cat. S1067), and gastrin (Tocris, cat. 3006).
[…]

[1] = second compound 0.0316 µM, first compound 0.0316 µM
[2] = second compound 0.0316 µM, first compound 0.1 µM
[3] = second compound 0.0316 µM, first compound 0.316 µM
[4] = second compound 0.0316 µM, first compound 1 µM
[5] = second compound 0.0316 µM, first compound 3.16 µM
[6] = second compound 0.0316 µM, first compound 10 µM
[7] = second compound 0.1 µM, first compound 0.0316 µM
[8] = second compound 0.1 µM, first compound 0.1 µM
[9] = second compound 0.1 µM, first compound 0.316 µM
[10] = second compound 0.1 µM, first compound 1 µM
[11] = second compound 0.1 µM, first compound 3.16 µM
[12] = second compound 0.1 µM, first compound 10 µM
[13] = second compound 0.316 µM, first compound 0.0316 µM
[14] = second compound 0.316 µM, first compound 0.1 µM
[15] = second compound 0.316 µM, first compound 0.316 µM
[16] = second compound 0.316 µM, first compound 1 µM
[17] = second compound 0.316 µM, first compound 3.16 µM
[18] = second compound 0.316 µM, first compound 10 µM
[19] = second compound 1 µM, first compound 0.0316 µM
[20] = second compound 1 µM, first compound 0.1 µM
[21] = second compound 1 µM, first compound 0.316 µM
[22] = second compound 1 µM, first compound 1 µM
[23] = second compound 1 µM, first compound 3.16 µM
[24] = second compound 1 µM, first compound 10 µM
[25] = second compound 3.16 µM, first compound 0.0316 µM
[26] = second compound 3.16 µM, first compound 0.1 µM
[27] = second compound 3.16 µM, first compound 0.316 µM
[28] = second compound 3.16 µM, first compound 1 µM
[29] = second compound 3.16 µM, first compound 3.16 µM
[30] = second compound 3.16 µM, first compound 10 µM
[31] = second compound 10 µM, first compound 0.0316 µM
[32] = second compound 10 µM, first compound 0.1 µM
[33] = second compound 10 µM, first compound 0.316 µM
[34] = second compound 10 µM, first compound 1 µM
[35] = second compound 10 µM, first compound 3.16 µM
[36] = second compound 10 µM, first compound 10 µM
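Also: spheroids exposed to the agents for seven days before readout.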
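For viability, T/C in this document: percent viability relative to DMSO vehicle control wells = 100%.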

CC1COCCN1c1cc(-c2ccnn2C)c2ccnc(-c3ccn[nH]3)c2n1 (stereo unspecified) + Cc1[nH]c2ccc(F)cc2c1-c1nc2c3cccnc3c3ncccc3c2[nH]1
pIC50 (second compound 0.0316 µM): 6.74
pIC50 (second compound 0.1 µM): 6.75
pIC50 (second compound 0.316 µM): 6.61
pIC50 (second compound 1 µM): 6.70
pIC50 (second compound 3.16 µM): 6.73
pIC50 (second compound 10 µM): 7.05
viability, T/C [1]: 111%
viability, T/C [2]: 65%
viability, T/C [3]: 36.1%
viability, T/C [4]: 19.6%
viability, T/C [5]: 21.5%
viability, T/C [6]: 13.1%
viability, T/C [7]: 80.3%
viability, T/C [8]: 70.3%
viability, T/C [9]: 29.1%
viability, T/C [10]: 21.6%
viability, T/C [11]: 17%
viability, T/C [12]: 12.9%
viability, T/C [13]: 90%
viability, T/C [14]: 88.4%
viability, T/C [15]: 38.8%
viability, T/C [16]: 22.4%
viability, T/C [17]: 14.2%
viability, T/C [18]: 15%
viability, T/C [19]: 93.1%
viability, T/C [20]: 70.4%
viability, T/C [21]: 36.5%
viability, T/C [22]: 21.9%
viability, T/C [23]: 16.4%
viability, T/C [24]: 17.4%
viability, T/C [25]: 84.5%
viability, T/C [26]: 71.8%
viability, T/C [27]: 31.8%
viability, T/C [28]: 14.5%
viability, T/C [29]: 12.2%
viability, T/C [30]: 15.2%
viability, T/C [31]: 74.1%
viability, T/C [32]: 47%
viability, T/C [33]: 26.7%
viability, T/C [34]: 17.4%
viability, T/C [35]: 12.1%
viability, T/C [36]: 15.4%

CC1COCCN1c1cc(C2(O)CC3CCC(C2)O3)c2cnn(-c3ccn[nH]3)c2n1 (stereo unspecified) + Cc1[nH]c2ccc(F)cc2c1-c1nc2c3cccnc3c3ncccc3c2[nH]1
pIC50 (second compound 0.0316 µM): 6.90
pIC50 (second compound 0.1 µM): 6.87
pIC50 (second compound 0.316 µM): 6.75
pIC50 (second compound 1 µM): 6.90
pIC50 (second compound 3.16 µM): 6.96
pIC50 (second compound 10 µM): 7.08
viability, T/C [1]: 83.2%
viability, T/C [2]: 54.7%
viability, T/C [3]: 31.3%
viability, T/C [4]: 14.4%
viability, T/C [5]: 12.2%
viability, T/C [6]: 8.75%
viability, T/C [7]: 72.7%
viability, T/C [8]: 60.4%
viability, T/C [9]: 20.7%
viability, T/C [10]: 14.7%
viability, T/C [11]: 14.4%
viability, T/C [12]: 7.02%
viability, T/C [13]: 77.3%
viability, T/C [14]: 76.6%
viability, T/C [15]: 23.8%
viability, T/C [16]: 19.6%
viability, T/C [17]: 12.6%
viability, T/C [18]: 7.48%
viability, T/C [19]: 73.7%
viability, T/C [20]: 55.8%
viability, T/C [21]: 30.4%
viability, T/C [22]: 22.1%
viability, T/C [23]: 13.7%
viability, T/C [24]: 7.91%
viability, T/C [25]: 84.5%
viability, T/C [26]: 52.7%
viability, T/C [27]: 22.5%
viability, T/C [28]: 16%
viability, T/C [29]: 14%
viability, T/C [30]: 6.07%
viability, T/C [31]: 73%
viability, T/C [32]: 46.9%
viability, T/C [33]: 21.8%
viability, T/C [34]: 15.1%
viability, T/C [35]: 9.33%
viability, T/C [36]: 4.43%

O=C(c1cc(Cc2n[nH]c(=O)c3ccccc23)ccc1F)N1CCN(C(=O)C2CC2)CC1 + Cc1[nH]c2ccc(F)cc2c1-c1nc2c3cccnc3c3ncccc3c2[nH]1
pIC50 (second compound 0.0316 µM): < 5.00
pIC50 (second compound 0.1 µM): < 5.00
pIC50 (second compound 0.316 µM): < 5.00
pIC50 (second compound 1 µM): < 5.00
pIC50 (second compound 3.16 µM): < 5.00
pIC50 (second compound 10 µM): < 5.00
viability, T/C [1]: 109%
viability, T/C [2]: 102%
viability, T/C [3]: 102%
viability, T/C [4]: 102%
viability, T/C [5]: 99%
viability, T/C [6]: 91.1%
viability, T/C [7]: 95.1%
viability, T/C [8]: 86.3%
viability, T/C [9]: 97.1%
viability, T/C [10]: 110%
viability, T/C [11]: 113%
viability, T/C [12]: 89.9%
viability, T/C [13]: 89.9%
viability, T/C [14]: 109%
viability, T/C [15]: 90.2%
viability, T/C [16]: 95.1%
viability, T/C [17]: 103%
viability, T/C [18]: 104%
viability, T/C [19]: 88.8%
viability, T/C [20]: 125%
viability, T/C [21]: 127%
viability, T/C [22]: 115%
viability, T/C [23]: 90.4%
viability, T/C [24]: 88.5%
viability, T/C [25]: 91.3%
viability, T/C [26]: 95.7%
viability, T/C [27]: 93.2%
viability, T/C [28]: 87.5%
viability, T/C [29]: 104%
viability, T/C [30]: 85%
viability, T/C [31]: 91.6%
viability, T/C [32]: 97.2%
viability, T/C [33]: 106%
viability, T/C [34]: 104%
viability, T/C [35]: 92.5%
viability, T/C [36]: 93%
